Experimental data from ChEMBL document CHEMBL6134779, “Design of Proteolytic-Resistant Antifungal Peptides by Utilizing Minimum d-Amino Acid Ratios” (J Med Chem, 2024).
Values after ≈ are worked out from the molar mass of the structure shown. Active and inactive are the calls of the source. The rule behind the calls is not given here.

How the values were obtained:
Candida albicans [1] = assay: Antifungal activity against Candida albicans CGMCC 2.2086 assessed as inhibition of fungal growth incubated for 48 hrs; assay type: functional
Candida tropicalis = assay: Antifungal activity against Candida tropicalis CGMCC 2.1975 assessed as inhibition of fungal growth incubated for 48 hrs; assay type: functional
Candida albicans [2] = assay: Antifungal activity against Candida albicans SP3902 assessed as inhibition of fungal growth incubated for 48 hrs; assay type: functional
Candida albicans [3] = assay: Antifungal activity against Candida albicans SP3903 assessed as inhibition of fungal growth incubated for 48 hrs; assay type: functional
Candida albicans [4] = assay: Antifungal activity against Fluconazole-resistant Candida albicans 58288 assessed as inhibition of fungal growth incubated for 48 hrs; assay type: functional
Candida albicans [5] = assay: Antifungal activity against Candida albicans SP3876 assessed as inhibition of fungal growth incubated for 48 hrs; assay type: functional
Candida albicans [6] = assay: Antifungal activity against Candida albicans SP3931 assessed as inhibition of fungal growth incubated for 48 hrs; assay type: functional
Candida albicans [7] = assay: Antifungal activity against Candida albicans 14936 assessed as inhibition of fungal growth incubated for 48 hrs; assay type: functional
Candida albicans [8] = assay: Antifungal activity against Candida albicans 17546 assessed as inhibition of fungal growth incubated for 48 hrs; assay type: functional
Candida albicans [9] = assay: Antifungal activity against Fluconazole-resistant Candida albicans 56214 assessed as inhibition of fungal growth incubated for 48 hrs; assay type: functional
Candida albicans [10] = assay: Antifungal activity against Candida albicans 56452 assessed as inhibition of fungal growth incubated for 48 hrs; assay type: functional
Candida parapsilosis = assay: Antifungal activity against Candida parapsilosis CGMCC 2.3989 assessed as inhibition of fungal growth incubated for 48 hrs; assay type: functional; conditions: Lodderomyces parapsilosis
[11] = Hemolytic activity in human red blood cells assessed as hemolysis incubated for 1 hr; assay type: toxicity, cell-based, Erythrocyte
[12] = Hemolytic activity in human red blood cells assessed as hemolysis rate at 512 uM incubated for 1 hr relative to control; assay type: toxicity, cell-based, Erythrocyte; conditions: read-out: Activity
HEK293 = assay: Cytotoxicity against HEK293 cells assessed as cell death at 64 uM measured after 8 hrs by calcein-AM and propidium iodide Live/Dead dye staining assay; assay type: toxicity, cell-based; conditions: human, hek293, 8 h
Candida albicans [13] = assay: Antifungal activity against Candida albicans CGMCC 2.2086 assessed as inhibition of fungal growth incubated for 48 hrs in presence of NaCl; assay type: functional
Candida albicans [14] = assay: Antifungal activity against Candida albicans CGMCC 2.2086 assessed as inhibition of fungal growth incubated for 48 hrs in presence of KCl; assay type: functional
Candida albicans [15] = assay: Antifungal activity against Candida albicans CGMCC 2.2086 assessed as inhibition of fungal growth incubated for 48 hrs in presence of NH4Cl; assay type: functional
Candida albicans [16] = assay: Antifungal activity against Candida albicans CGMCC 2.2086 assessed as inhibition of fungal growth incubated for 48 hrs in presence of MgCl2; assay type: functional
Candida albicans [17] = assay: Antifungal activity against Candida albicans CGMCC 2.2086 assessed as inhibition of fungal growth incubated for 48 hrs in presence of ZnCl2; assay type: functional
Candida albicans [18] = assay: Antifungal activity against Candida albicans CGMCC 2.2086 assessed as inhibition of fungal growth incubated for 48 hrs in presence of FeCl3; assay type: functional
Candida albicans [19] = assay: Antifungal activity against Candida albicans CGMCC 2.2086 assessed as inhibition of fungal growth incubated for 48 hrs in presence of CaCl2; assay type: functional
[20] = Stability of the compound in NaCl assessed as change in secondary structure by CD spectra analysis; assay type: physicochemical
[21] = Stability of the compound in KCl assessed as change in secondary structure by CD spectra analysis; assay type: physicochemical
[22] = Stability of the compound in NH4Cl assessed as change in secondary structure by CD spectra analysis; assay type: physicochemical
[23] = Stability of the compound in MgCl2 assessed as change in secondary structure by CD spectra analysis; assay type: physicochemical
[24] = Stability of the compound in ZnCl2 assessed as change in secondary structure by CD spectra analysis; assay type: physicochemical
[25] = Stability of the compound in FeCl3 assessed as change in secondary structure by CD spectra analysis; assay type: physicochemical
[26] = Stability of the compound in CaCl2 assessed as change in secondary structure by CD spectra analysis; assay type: physicochemical
Candida albicans [27] = assay: Antifungal activity against Candida albicans CGMCC 2.2086 assessed as inhibition of fungal growth incubated for 2 to 4 hrs in presence of 100% serum; assay type: functional, organism-based; conditions: time 2-4 hrs
Candida albicans [28] = assay: Antifungal activity against Candida albicans CGMCC 2.2086 assessed as inhibition of fungal growth incubated for 2 hrs in presence of trypsin; assay type: functional, organism-based
Candida albicans [29] = assay: Antifungal activity against Candida albicans CGMCC 2.2086 assessed as inhibition of fungal growth incubated for 2 hrs in presence of chymotrypsin; assay type: functional, organism-based
Candida albicans [30] = assay: Antifungal activity against Candida albicans CGMCC 2.2086 assessed as inhibition of fungal growth incubated for 2 hrs in presence of protease K; assay type: functional, organism-based
Candida albicans [31] = assay: Antibiofilm activity against Candida albicans CGMCC 2.2086 assessed as inhibition of biofilm formation at antifungal MIC measured after 48 hrs by crystal violet staining based assay; assay type: functional
Candida albicans [32] = assay: Induction of Candida albicans CGMCC 2.2086 cell wall permeabilization at 128 uM by NPN probe based assay relative to control; assay type: functional
Candida albicans [33] = assay: Induction of Candida albicans CGMCC 2.2086 cell wall permeabilization by NPN probe based assay; assay type: functional, organism-based; conditions: dose 1-128 µM
Cell membrane [34] = assay: Induction of cytoplasmic membrane depolarization in Candida albicans CGMCC 2.2086 at 0.5 to 2X MIC measured up to 3600 secs by DISC3-5 dye based fluorescence assay; assay type: subcellular; conditions: time <= 3600.0 sec
Candida albicans [35] = assay: Induction of ROS generation in Candida albicans CGMCC 2.2086 measured after 60 mins by […] dye based fluorescence assay; assay type: functional, organism-based; conditions: dose 0.5-128 µM
Cell membrane [36] = assay: Disruption of Candida albicans CGMCC 2.2086 cell membrane at 1X MIC measured after 1 hr by SYTO9/propidium iodide staining based fluorescence microscopic analysis; assay type: subcellular
Candida albicans [37] = assay: Induction of morphological changes in Candida albicans CGMCC 2.2086 assessed as appearance of cell pits at 1X MIC measured after 60 mins by SEM analysis; assay type: functional, organism-based
Candida albicans [38] = assay: Induction of morphological changes in Candida albicans CGMCC 2.2086 at 1X MIC measured after 60 mins by TEM analysis; assay type: functional, organism-based
Candida albicans [39] = assay: Antifungal activity against Candida albicans CGMCC 2.2086 infected in C57BL/6 mouse keratitis model assessed as reduction in clinical scores at 1 mg/ml administered as 10 uL eye drop every 5 mins for first 1 hr and every 30 mins for next 7 hrs; assay type: functional, organism-based; conditions: route ou, time 8.0 hrs
Candida albicans [40] = assay: Antifungal activity against Candida albicans CGMCC 2.2086 infected in C57BL/6 mouse keratitis model assessed as reduction in fungal cell count at 1 mg/ml administered as 10 uL eye drop every 5 mins for first 1 hr and every 30 mins for next 7 hrs; assay type: functional, organism-based; conditions: route ou, time 8.0 hrs
Candida albicans [41] = assay: Antifungal activity against Candida albicans CGMCC 2.2086 infected in C57BL/6 mouse keratitis model assessed as reduction in mycelia in the eyes at 1 mg/ml administered as 10 uL eye drop every 5 mins for first 1 hr and every 30 mins for next 7 hrs by Schiff staining based assay; assay type: functional, organism-based; conditions: route ou, time 8.0 hrs

**Q.** For `CC(C)[C@H](N)C(=O)N[C@H](C(=O)N[C@H](CCCNC(=N)N)C(=O)N[C@@H](CCCNC(=N)N)C(=O)N[C@@H](Cc1c[nH]cn1)C(=O)N[C@H](C(=O)N[C@H](C(=O)N[C@H](C(=O)N[C@H](C(=O)N[C@H](CCCNC(=N)N)C(=O)N[C@@H](CCCNC(=N)N)C(=O)N[C@@H](Cc1c[nH]cn1)C(=O)N[C@H](C(=O)N[C@H](C(=O)N[C@H](C(=O)N[C@H](C(=O)N[C@H](CCCNC(=N)N)C(=O)N[C@@H](CCCNC(=N)N)C(=O)N[C@@H](Cc1c[nH]cn1)C(=O)N[C@H](C(=O)N[C@H](C(N)=O)C(C)C)C(C)C)C(C)C)C(C)C)C(C)C)C(C)C)C(C)C)C(C)C)C(C)C)C(C)C)C(C)C`, which MIC95 (Candida albicans [1]) is on record?
**A.** 8 µM (≈ 20.4 µg/mL)

**Q.** What about the MIC95 (Candida tropicalis) of the same compound?
**A.** 4 µM (≈ 10.2 µg/mL)

**Q.** And the MIC95 (Candida albicans [2])?
**A.** 8 µM (≈ 20.4 µg/mL)

**Q.** And the MIC95 (Candida albicans [3])?
**A.** 4 µM (≈ 10.2 µg/mL)

**Q.** And the MIC95 (Candida albicans [4])?
**A.** 8 µM (≈ 20.4 µg/mL)

**Q.** What about the MIC95 (Candida albicans [5]) of the same compound?
**A.** 8 µM (≈ 20.4 µg/mL)

**Q.** And the MIC95 (Candida albicans [6])?
**A.** 8 µM (≈ 20.4 µg/mL)

**Q.** What about the MIC95 (Candida albicans [7]) of the same compound?
**A.** 8 µM (≈ 20.4 µg/mL)

**Q.** And the MIC95 (Candida albicans [8])?
**A.** 4 µM (≈ 10.2 µg/mL)

**Q.** What about the MIC95 (Candida albicans [9]) of the same compound?
**A.** 8 µM (≈ 20.4 µg/mL)

**Q.** And the MIC95 (Candida albicans [10])?
**A.** 4 µM (≈ 10.2 µg/mL)

**Q.** What about the MIC95 (Candida parapsilosis) of the same compound?
**A.** 4 µM (≈ 10.2 µg/mL)

**Q.** And the HC50 at 1 h [11]?
**A.** > 512 µM

**Q.** What about the hemolysis at 1 h, 512 µM [12] of the same compound?
**A.** 8.58%

**Q.** And the Activity (HEK293)?
**A.** Toxic

**Q.** What about the MIC95 (Candida albicans [13]) of the same compound?
**A.** 64 µM

**Q.** What about the MIC95 (Candida albicans [14]) of the same compound?
**A.** 32 µM

**Q.** And the MIC95 (Candida albicans [15])?
**A.** 4 µM

**Q.** And the MIC95 (Candida albicans [16])?
**A.** 8 µM

**Q.** And the MIC95 (Candida albicans [17])?
**A.** 8 µM

**Q.** And the MIC95 (Candida albicans [18])?
**A.** 32 µM

**Q.** And the MIC95 (Candida albicans [19])?
**A.** 32 µM

**Q.** What about the Stability [20] of the same compound?
**A.** Unstable

**Q.** And the Stability [21]?
**A.** Stable

**Q.** What about the Stability [22] of the same compound?
**A.** Stable

**Q.** What about the Stability [23] of the same compound?
**A.** Stable

**Q.** What about the Stability [24] of the same compound?
**A.** Stable

**Q.** And the Stability [25]?
**A.** Stable

**Q.** And the Stability [26]?
**A.** Stable

**Q.** What about the “growth inhibition (GI)” value (Candida albicans [27]) of the same compound?
**A.** Active; No Alterations In The Antimicrobial Activity Was Observed In Presence Of Serum

**Q.** What about the Activity (Candida albicans [28]) of the same compound?
**A.** Active

**Q.** And the Activity (Candida albicans [29])?
**A.** Active

**Q.** And the Activity (Candida albicans [30])?
**A.** Active

**Q.** And the “inhibition (INH)” value (Candida albicans [31])?
**A.** 90%

**Q.** And the Activity (Candida albicans [32])?
**A.** <=100%

**Q.** And the Activity (Candida albicans [33])?
**A.** Dose-dependent-effect

**Q.** And the Activity (Cell membrane [34])?
**A.** Active

**Q.** And the Activity (Candida albicans [35])?
**A.** Dose-dependent-effect

**Q.** And the Activity (Cell membrane [36])?
**A.** Active

**Q.** What about the Activity (Candida albicans [37]) of the same compound?
**A.** Active; Only Limited Number Of Pits Appeared

**Q.** What about the Activity (Candida albicans [38]) of the same compound?
**A.** inactive

**Q.** What does the source list for `C[C@@H]1[C@H](O)[C@@H](C)/C=C/C=C/C=C/C=C/C=C/C=C/C=C/[C@H](O[C@@H]2O[C@H](C)[C@@H](O)[C@H](N)[C@@H]2O)C[C@@H]2O[C@](O)(C[C@@H](O)C[C@@H](O)[C@H](O)CC[C@@H](O)C[C@@H](O)CC(=O)O[C@H]1C)C[C@H](O)[C@H]2C(=O)O` [AMPHOTERICIN B]?
**A.** MIC95 (Candida albicans [1]): 0.25 µM (≈ 0.231 µg/mL); MIC95 (Candida tropicalis): 0.25 µM (≈ 0.231 µg/mL); MIC95 (Candida albicans [2]): 0.25 µM (≈ 0.231 µg/mL); MIC95 (Candida albicans [3]): 0.25 µM (≈ 0.231 µg/mL); MIC95 (Candida albicans [4]): 0.25 µM (≈ 0.231 µg/mL); MIC95 (Candida albicans [5]): 0.25 µM (≈ 0.231 µg/mL); MIC95 (Candida albicans [6]): 0.25 µM (≈ 0.231 µg/mL); MIC95 (Candida albicans [7]): 0.25 µM (≈ 0.231 µg/mL); MIC95 (Candida albicans [8]): 0.25 µM (≈ 0.231 µg/mL); MIC95 (Candida albicans [9]): 0.25 µM (≈ 0.231 µg/mL); MIC95 (Candida albicans [10]): 0.25 µM (≈ 0.231 µg/mL); MIC95 (Candida parapsilosis): 0.25 µM (≈ 0.231 µg/mL); Activity (Candida albicans [39]): Active; Activity (Candida albicans [40]): Active; Activity (Candida albicans [41]): Active; Mycelia In The Eyes Was Either Absent Or Minimal
